Assays:
[1] = tested on: mTOR; conditions: cited from earlier work; for activity as activators of mTOR or inhibitors of autophagy compared with other amino acids: alone or in combination
[2] = tested on: Human monocytes; experiment: monocyte chemotaxis in 48-well microchemotaxis chamber; type: cell-based; conditions: for chemotactic activity at a stated concentration: 0.1 mmol/L; for induction of monocyte chemotaxis: 10-9 to 10-5 mol/L; for peptide derived chemotactic activity under competition with VGVAPG: competition with SEQ ID NO:19; for monocyte chemotaxis in the presence of glucose, fructose, or mannose: control sugars; for monocyte chemotaxis in the presence of lactose: lactose dissociates the 67-kD ERC; for chemotactic response to f-MLF after preincubation of monocytic cells with peptide: preincubation 30 minutes; for chemotactic potency compared with f-MLF: same concentration of f-MLF
Procedure: Human monocytes are isolated from freshly drawn blood of healthy volunteers using serial […] gradient centrifugation, as described elsewhere. Cells are cultured for 16 hours in RPMI-1640 media supplemented with 0.5% human serum to become quiescent after isolation. Purity of the cells is >95% as determined by flow cytometry analysis. Monocyte chemotaxis is assayed in a 48-well microchemotaxis chamber (Neuroprobe, Gaithersburg, MD) in serum-free media. Wells in the upper and lower chamber are separated by a polyvinylpyrrolidone-free polycarbonate membrane (pore size 5 µm; Costar). Freshly isolated monocytes at a density of 5 × 10^5/mL are incubated for 2.5 hours with recombinant C-peptide (Sigma), before migrated cells on the bottom face of the filter are stained and counted under the light microscope. Maximal chemotactic activity is measured with […] N -formyl-methionyl-leucyl-phenylalanine (f-MLF; Sigma Chemical Co), and checkerboard analysis is used to distinguish chemotaxis from chemokinesis.
Chemotaxis is tested with SEQ ID NO:12 ([…]), SEQ ID NO:11 ([…]), SEQ ID NO:24 ([…]) or SEQ ID NO:25 ([…]). Exposure of cells to lactose is used to specifically dissociate the 67-kD ERC. Controls for lactose included glucose, fructose, and mannose, none of which affect the 67-kD ERC. In each case, monocytes cells are exposed to the relevant concentrations of SEQ ID NO:12 ([…]), SEQ ID NO:11 ([…]), SEQ ID NO:24 ([…]) or SEQ ID NO:25 ([…]) (10-9 to 10-5 mol/L), for 30 minutes before the chemotaxis assays are started. […] Monocytes in the upper wells of the assay chamber are exposed to varying concentrations of SEQ ID NO:12 ([…]), SEQ ID NO:11 ([…]), SEQ ID NO:24 ([…]) or SEQ ID NO:25 ([…]) for 30 minutes before stimulation by SEQ ID NO:19 (VGVAPG) (0.1 nmol/L - 10 nmol/L) in the lower wells. […] SEQ ID NO:12 ([…]), SEQ ID NO:11 ([…]), SEQ ID NO:24 ([…]), or SEQ ID NO:25 ([…]) derived chemotactic activity is eliminated by competition with Val-Gly-Val-[…]-Pro-Gly (SEQ ID NO:19 (VGVAPG)), a repetitive peptide found in human elastin that binds to cellular elastin receptors. Monocyte chemotaxis in response to both SEQ ID NO:19 (VGVAPG) or SEQ ID NO:12 ([…]), SEQ ID NO:11 ([…]), SEQ ID NO:24 ([…]), or SEQ ID NO:25 ([…]) is abolished in the presence of lactose, a galactosugar that specifically dissociates the 67-kD ERC, but it is unaffected by glucose, fructose, or mannose.

C[C@H](N)C(=O)O [L-Alanine]
activity as activators of mTOR or inhibitors of autophagy compared with other amino acids [1]: more potent | mTOR associated autophagic inhibitory effects on human cells [1]: most prominent

N=C(N)NCCC[C@H](N)C(=O)O [L-Arginine]
activity as activators of mTOR or inhibitors of autophagy compared with other amino acids [1]: more potent

N[C@@H](CCC(=O)O)C(=O)O [L-Glutamic Acid]
activity as activators of mTOR or inhibitors of autophagy compared with other amino acids [1]: no or opposite effects

NCC(=O)O [L-Glycine]
activity as activators of mTOR or inhibitors of autophagy compared with other amino acids [1]: more potent | amino-acid-stimulated mTOR complex 1 activation [1]: improves

CC[C@H](C)[C@H](N)C(=O)O [L-Isoleucine]
activity as activators of mTOR or inhibitors of autophagy compared with other amino acids [1]: more potent

CC(C)C[C@H](N)C(=O)O [L-Leucine]
activity as activators of mTOR or inhibitors of autophagy compared with other amino acids [1]: more potent | mTOR associated autophagic inhibitory effects on human cells [1]: most prominent

NCCCC[C@H](N)C(=O)O [L-Lysine]
activity as activators of mTOR or inhibitors of autophagy compared with other amino acids [1]: no or opposite effects

CSCC[C@H](N)C(=O)O [L-Methionine]
activity as activators of mTOR or inhibitors of autophagy compared with other amino acids [1]: no or opposite effects

N[C@@H](Cc1ccccc1)C(=O)O [L-Phenylalanine]
activity as activators of mTOR or inhibitors of autophagy compared with other amino acids [1]: no or opposite effects

O=C(O)[C@@H]1CCCN1 [L-Proline]
activity as activators of mTOR or inhibitors of autophagy compared with other amino acids [1]: more potent | mTOR associated autophagic inhibitory effects on human cells [1]: most prominent

N[C@@H](CO)C(=O)O [L-Serine]
activity as activators of mTOR or inhibitors of autophagy compared with other amino acids [1]: no or opposite effects

C[C@@H](O)[C@H](N)C(=O)O [L-Threonine]
activity as activators of mTOR or inhibitors of autophagy compared with other amino acids [1]: no or opposite effects

N[C@@H](Cc1ccc(O)cc1)C(=O)O [L-Tyrosine]
activity as activators of mTOR or inhibitors of autophagy compared with other amino acids [1]: no or opposite effects

AQGVLPGQ (Immunomodulatory peptide) [SEQ ID NO:11]
chemotactic activity at a stated concentration [2]: good activity | induction of monocyte chemotaxis [2]: induce chemotaxis in a concentration-dependent manner | peptide derived chemotactic activity under competition with VGVAPG [2]: eliminated | monocyte chemotaxis in the presence of glucose, fructose, or mannose [2]: unaffected | monocyte chemotaxis in the presence of lactose [2]: abolished | chemotactic response to f-MLF after preincubation of monocytic cells with peptide [2]: does not alter | chemotactic potency compared with f-MLF [2]: considerably more potent

AQGVQPGQ (Immunomodulatory peptide) [SEQ ID NO:25]
chemotactic activity at a stated concentration [2]: good activity | induction of monocyte chemotaxis [2]: induce chemotaxis in a concentration-dependent manner | peptide derived chemotactic activity under competition with VGVAPG [2]: eliminated | monocyte chemotaxis in the presence of glucose, fructose, or mannose [2]: unaffected | monocyte chemotaxis in the presence of lactose [2]: abolished | chemotactic response to f-MLF after preincubation of monocytic cells with peptide [2]: does not alter | chemotactic potency compared with f-MLF [2]: considerably more potent

LQGVLPGQ (Immunomodulatory peptide) [SEQ ID NO:12]
chemotactic activity at a stated concentration [2]: good activity | induction of monocyte chemotaxis [2]: induce chemotaxis in a concentration-dependent manner | peptide derived chemotactic activity under competition with VGVAPG [2]: eliminated | monocyte chemotaxis in the presence of glucose, fructose, or mannose [2]: unaffected | monocyte chemotaxis in the presence of lactose [2]: abolished | chemotactic response to f-MLF after preincubation of monocytic cells with peptide [2]: does not alter | chemotactic potency compared with f-MLF [2]: considerably more potent

LQGVQPGQ (Immunomodulatory peptide) [SEQ ID NO:24]
chemotactic activity at a stated concentration [2]: good activity | induction of monocyte chemotaxis [2]: induce chemotaxis in a concentration-dependent manner | peptide derived chemotactic activity under competition with VGVAPG [2]: eliminated | monocyte chemotaxis in the presence of glucose, fructose, or mannose [2]: unaffected | monocyte chemotaxis in the presence of lactose [2]: abolished | chemotactic response to f-MLF after preincubation of monocytic cells with peptide [2]: does not alter | chemotactic potency compared with f-MLF [2]: considerably more potent

VGVAPG (Immunomodulatory peptide) [SEQ ID NO:19, reference compound]
monocyte migration ([2]; 0.1 nmol/L - 10 nmol/L in the lower wells): concentration-dependent increase | monocyte chemotaxis in the presence of glucose, fructose, or mannose [2]: unaffected | monocyte chemotaxis in the presence of lactose [2]: abolished

— patent US20230173089A1, “Q-ER PEPTIDE” (Biotempt B.V., priority 2019, published 2023)
